In patent publication US20110306137A1, “METHODS AND COMPOSITIONS FOR MODULATING DIFFERENTIATION OF PLURIPOTENTIAL CELLS” (priority 2007, published 2011):

How the values were obtained:
MASCs [1] = assay: Osteogenic differentiation of MASCs with Notch activation by clustered Jag1/Fc, with or without DAPT; format: cell-based, human; details: for effect on Jagged stimulation of osteogenesis: 5 μM DAPT
Method: MASCs (prepared essentially as described in Example 1) were plated at 10^4 cells/well in 96-well plates in […]MEM (Mediatech, Herndon, Va.) supplemented with 10% Fetal Bovine Serum (FBS, HyClone, Logan Utah) and cultured overnight. The next day, cells were transferred to osteogenic differentiation medium (composition described in Example 5).
During the differentiation procedure, certain batches of cells were subjected to Notch activation via the Notch ligand Jagged. A fusion between the extracellular domain of the rat Jagged1 protein and the Fc region of human IgG (Jag1/Fc) was obtained from R&D Systems (Minneapolis, Minn.; Catalogue No. 599-JG), and the lyophilized preparation was reconstituted to a concentration of 1 mg/ml in PBS containing 0.1% (w/v) bovine serum albumin.
The chimeric Jag1/Fc protein was “clustered” by preincubation with a ten-fold weight excess of goat anti-human Fc (Sigma, St. Louis Mo.). Before use, the antibody solution (2 mg/ml) was dialyzed overnight, with three changes, against PBS to remove sodium azide. The volume of antibody solution was not changed by dialysis. For clustering, Jag1/Fc (1 mg/ml in PBS+0.1% BSA) and anti-human Fc (2 mg/ml in PBS) were mixed and incubated at room temperature for 40 min prior to addition to the cell cultures.
(§1) Clustered Jag1/Fc was added to cultures at a final concentration of 5 μg/ml Jag1/Fc and 50 μg/ml antibody. Control cultures received only the antibody. Additional cultures received Jag1/Fc and anti-Fc as above, along with 5 μM N—[N-(3,5-Difluorophenacetyl)-L-alanyl]-S-phenylglycine t-butyl ester (DAPT), a […]-secretase inhibitor. Stock solutions of 2 mM DAPT in DMSO were obtained from Sigma-Aldrich, St. Louis, Mo. […]-secretase is a protease that, upon activation of transmembrane Notch protein by a Notch ligand, cleaves the Notch protein at a site that allows release of the Notch intracellular domain. Certain cultures also included BMP-6 (final concentration 500 ng/ml), as described in Example 5.
(§2) After 10 days in culture, cells were fixed in methanol, stained with Alizarin Red and examined by microscopy as described in Example 5.

DRCs = assay: Osteogenic differentiation of DRCs with DAPT; format: cell-based, human; details: presence of BMP6
Method: as §1, §2

MASCs [2] = assay: Adipogenic differentiation of MASCs with clustered Jag1/Fc, DAPT, BMP6; format: cell-based, human
Method: MASCs were prepared essentially as described in Example 1. Culture in adipogenic differentiation medium was as described in Example 6. Treatment of cells with Anti-Fc and Clustered Jag1/Fc were as described in Example 7. Fixation, staining with Oil Red O and analysis of adipogenic differentiation were as described in Example 6.

CCND1 = assay: RT2 Profiler PCR Array Human Notch Signaling Pathway; format: cell-based; details: Jag-activated MASCs compared to MASCs; two-fold criteria
Method: (§3) The expression of a number of genes involved in Notch signaling, and in signaling pathways that interact with the Notch pathway (Wnt, Shh), was compared in DRCs and MASCs, using a commercial array (RT^2 Profiler PCR Array Human Notch Signaling Pathway plate, SA Biosciences No. PAHS-059F). The genes that were analyzed are shown in Table 2 (taken from SA Biosciences online Catalogue). Notch pathway members include genes encoding Notch ligands, enzymes that modify the Notch protein and various transcriptional regulatory proteins that control the expression of the Notch pathway members. Notch pathway targets are genes whose expression is either directly or indirectly regulated by Notch activation. Wnt pathway members are Wnt ligands or proteins that participate in WNT-mediated signaling pathways. The Wnt pathway was investigated because of known crosstalk between the Notch and Wnt signaling pathways, and because it is involved in osteogenic differentiation, which is inhibited in DRCs.
(§4) MASCs and DRCs, prepared and frozen as described in Examples 1-3, were thawed (Example 4), grown for 4-7 days in alpha-MEM/10% FBS/pen-strep, then replated into 10-cm Petri dishes at a concentration of 0.5×10^6 cells/dish, in duplicate. After re-plating, cells were grown for 4 days to allow intracellular levels of endogenous NICD, activated by trypsinization, to return to basal. At the end of this period, culture medium was carefully aspirated, the cells were lysed in 400 μl RLT Buffer (Qiagen, Valencia, Calif.), and the lysate was scraped from the plate.
(§5) As a control, MASCs that had been exposed to clustered soluble Jagged1 protein, to activate the Notch signaling pathway (see Example 7), were also analyzed and compared to MASCs.
(§6) The lysate was homogenized using a QiaShredder (Qiagen, Valencia, Calif.). The homogenate was mixed with ethanol, and the mixture was applied to a RNeasy column (Qiagen, Valencia, Calif.) and processed according to the manufacturer's instructions. The eluate was treated with a DNA-Free™ kit (Ambion, Austin, Tex.), according to the manufacturer's protocol, for elimination of genomic DNA.
(§7) RNA concentration and purity was assayed on Nanodrop spectrophotometer (Thermo Scientific, Wilmington, Del.). […]
(§8) cDNA samples, synthesized as described above, were diluted and added to RT^2 SYBR Green qPCR Master Mix (SA Biosciences) according to the manufacturer's recommendations. […] SYBR green fluorescence, normalized to controls also present on the array, is used a s a measure of mRNA level.
(§9) Results were analyzed using analysis tools provided by SA Biosciences, assigning results from MASCs to the “Control” field and DRC results to the “Test” field, to obtain figures for relative changes in expression for the genes assayed. […]

HES1 = assay: as above; format: cell-based; details: Jag-activated MASCs compared to MASCs
Method: as §3, §4, §5, §6, §7, §8, §9

HR = assay: as above; format: cell-based; details: Jag-activated MASCs compared to MASCs
Method: as §3, §4, §5, §6, §7, §8, §9

WISP1 = assay: as above; format: cell-based; details: Jag-activated MASCs compared to MASCs
Method: as §3, §4, §5, §6, §7, §8, §9

[3] = test system: genes involved in Notch signaling; assay: RT2 Profiler PCR Array Human Notch Signaling Pathway, number of genes altered; format: cell-based; details: Jag-activated MASCs compared to MASCs; 84 genes tested
Method: as §3, with “Wnt pathway members are Wnt ligands or proteins that participate in WNT-mediated signaling pathways. The Wnt pathway was investigated because of known crosstalk between the Notch and Wnt signaling pathways, and because it is involved in osteogenic differentiation, which is inhibited in DRCs.” left out
As a control, MASCs that had been exposed to clustered soluble Jagged1 protein, to activate the Notch signaling pathway (see Example 7), were also analyzed and compared to MASCs. […]
as §8, §9

[4] = test system: osteogenic differentiation; assay: Osteogenic differentiation potential assay (Alizarin Red staining); format: cell-based, human; details: BMP-6 500 ng/ml; MASCs, DRCs, mock DRCs
Method: For assay of osteogenic differentiation potential, cells (MASCs, DRCs or mock DRCs) were plated at 10^4 cells/well in 96-well plates in […]MEM (Mediatech, Herndon, Va.) supplemented with 10% Fetal Bovine Serum (FBS, HyClone, Logan Utah) and cultured overnight.
The next day, the culture medium was replaced with DMEM (Mediatech, Herndon, Va.) containing high glucose, pyruvate, glutamine and 10% FBS supplemented with 50 μg/ml Ascorbic acid (L-ascorbic acid 2-phosphate, Wako Chemical, Ltd., Japan, added freshly before use), 10 mM β-glycerophosphate (Sigma-Aldrich, St. Louis, Mo.), and 100 nM Dexamethasone (Sigma-Aldrich, St. Louis, Mo.). This “osteogenic differentiation medium” was changed every 3-4 days.
Osteogenic differentiation assays were conducted in the absence or presence of recombinant human bone morphogenetic protein 6 (BMP-6; R&D Systems, Minneapolis, Minn.), at a concentration of 500 ng/ml.
On day 14 or 17 after the transfer of cells into osteogenic differentiation medium, cultures were assayed for the presence of osteocytes by Alizarin Red staining. Cells were fixed by adding 100% methanol to the wells and incubating on ice for 3 min. The wells were then rinsed with water, and 40 mM alizarin red S (Sigma-Aldrich, St. Louis, Mo.), pH 4.2 was added. […]

[5] = test system: adipogenic differentiation; assay: Adipogenic differentiation potential assay (Oil Red O staining); format: cell-based, human; details: BMP-6 100 ng/ml; day 17-21
Method: For assay of adipogenic differentiation potential, cells were plated at 10^4 cells/well in 96-well plates in […]MEM (Mediatech, Herndon, Va.) supplemented with 10% Fetal Bovine Serum (FBS, HyClone, Logan Utah) and cultured overnight.
The next day, the culture medium was replaced with DMEM (Mediatech, Herndon, Va.) containing high glucose, pyruvate, glutamine and 10% FBS supplemented with 1 μM Dexamethasone, […] 1-methyl-3 isobutylxanthine, 100 μM indomethacin and 10 μg/ml insulin (all supplements from Sigma-Aldrich, St. Louis, Mo.). This “adipogenic differentiation medium” was changed every 3-4 days.
Adipogenic differentiation assays were conducted in the absence or presence of recombinant human bone morphogenetic protein 6 (BMP-6; R&D Systems, Minneapolis, Minn.) at a concentration of 100 ng/ml.
On day 17-21 after transfer of cells into adipogenic differentiation medium, cells were tested for adipocytic differentiation by staining with Oil Red O. Cells were fixed by adding 10% formalin to the wells and incubating for 30-60 min at room temperature. Wells were then washed with 60% isopropanol and allowed to dry completely. Oil Red O working solution was freshly prepared from Oil Red stock solution (3.5 mg/ml in isopropanol) by diluting it 3:2 in water and filtering. Staining was conducted for 10 min; and the wells were then washed extensively with water. […]

## C[C@H](NC(=O)Cc1cc(F)cc(F)c1)C(=O)N[C@H](C(=O)OC(C)(C)C)c1ccccc1 [DAPT, N—[N-(3,5-Difluorophenacetyl)-L-alanyl]-S-phenylglycine t-butyl ester]
MASCs [1]; absence of BMP6
  effect on Jagged stimulation of osteogenesis: completely reversed
MASCs [1]; presence of BMP6 500 ng/ml
  effect on Jagged stimulation of osteogenesis: strongly reduced
DRCs
  effect on osteogenic potential exhibited by DRCs: reduced
MASCs [2]; DAPT with BMP6
  effect on stimulation of adipogenesis by BMP6: enhanced further
MASCs [2]; DAPT, no BMP6
  effect on adipogenesis of MASCs: slightly enhanced adipogenesis

## Jag1/Fc: fusion between the extracellular domain of the rat Jagged1 protein and the Fc region of human IgG, clustered with goat anti-human Fc
MASCs [1]; additional experiments
  dose dependence of stimulation of osteogenesis: dose-dependent
MASCs [1]; clustered Jag1/Fc 5 μg/ml, absence or presence of BMP6, 10 days
  effect on osteogenesis of MASCs (Alizarin Red): osteogenesis was strongly enhanced
MASCs [2]; Jag with BMP6
  effect on BMP6-enhanced adipogenesis of MASCs: reversed
MASCs [2]; Jag with BMP6 and DAPT
  effect on adipogenesis of MASCs: no effect
MASCs [2]; clustered Jag1/Fc, absence of DAPT or BMP6
  effect on adipogenesis of MASCs: blocked
CCND1
  expression of CCND1 (cyclin D1): not altered
HES1
  expression of Hes1: up-regulated
HR
  expression of HR: up-regulated
WISP1
  expression of Wisp1: up-regulated
[3]
  number of genes with activated expression (two-fold or more): 18 genes
  number of genes with reduced expression (50% or less): three

B1: BMP-6: recombinant human bone morphogenetic protein 6 (protein, UniProt P22004 375-513, looked up)
Bone morphogenetic protein 6: SASSRRRQQSRNRSTQSQDVARVSSASDYNSSELKTACRKHELYVSFQDLGWQDWIIAPKGYAANYCDGECSFPLNAHMNATNHAIVQTLVHLMNPEYVPKPCCAPTKLNAISVLYFDDNSNVILKKYRNMVVRACGCH
[4]
  effect of BMP-6 on degree of osteogenic differentiation: increased the degree of osteogenic differentiation
[5]
  effect of BMP-6 on adipocytic differentiation of MASCs: enhanced
MASCs [2]; BMP6 in the differentiation medium
  effect on adipogenesis of MASCs: strongly enhanced adipogenesis
